Earlier results as cited in patent US9907807B2, “Topical pharmaceutical compositions” (Almirall, S.A., priority 2010, dated 2018).

In the case of C[C@@H]1C[C@H]2[C@@H]3CCC4=CC(=O)C=C[C@]4(C)[C@@]3(Cl)[C@@H](O)C[C@]2(C)[C@@]1(OC(=O)c1ccco1)C(=O)CCl [Mometasone furoate, 9α,21-dichloro-11β,17-dihydroxy-16α-methylpregna-1,4-diene-3,20-dione 17-(2-furoate)], the “solubility in ethyl alcohol” value (ethyl alcohol) is listed as “moderately soluble”, the solubility in octanol (octanol) is listed as “slightly soluble” and the solubility in water (water) is listed as “insoluble”.
